Test results from PMC5989697 (ACS Catalysis, 2018).

Biological target: T1, eugenol oxidase (EUGO) (Rhodococcus jostii, UniProt Q0SBK1)
T1 sequence (Q0SBK1 1-526): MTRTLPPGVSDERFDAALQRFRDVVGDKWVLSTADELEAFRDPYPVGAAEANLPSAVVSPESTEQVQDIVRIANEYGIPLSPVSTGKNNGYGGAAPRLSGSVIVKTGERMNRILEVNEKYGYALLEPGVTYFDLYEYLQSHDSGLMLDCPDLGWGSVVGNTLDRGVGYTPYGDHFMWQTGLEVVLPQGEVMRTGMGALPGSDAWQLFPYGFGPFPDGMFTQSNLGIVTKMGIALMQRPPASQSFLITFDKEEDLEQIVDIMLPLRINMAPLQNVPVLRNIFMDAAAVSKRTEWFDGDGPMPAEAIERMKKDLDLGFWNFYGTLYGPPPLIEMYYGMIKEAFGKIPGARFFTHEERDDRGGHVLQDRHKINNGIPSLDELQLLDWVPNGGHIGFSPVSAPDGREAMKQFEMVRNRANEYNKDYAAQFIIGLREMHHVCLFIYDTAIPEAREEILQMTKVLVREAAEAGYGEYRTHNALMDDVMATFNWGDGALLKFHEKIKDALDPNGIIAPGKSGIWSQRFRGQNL
Assay: steady-state kinetics
Type: biochemical

Km: 0.77 µM
SMILES: C=CCc1cc(OC)c(O)c(OC)c1 [compound 1, 2,6-dimethoxy-4-allylphenol]
